A short description of series [1]: clinical. Conditions: for form present in urine (conjugated/unconjugated): urine processed with and without enzymatic hydrolysis; for relative urinary share of the amount recovered within 72 h: % of the dose recovered in urine within 72 h; for t1/2 (elimination half-life, renal excretion): from mean excretion curves. As for the experimental part: Enzymatic hydrolysis was performed at 37 °C for 16 h using β-glucuronidase/arylsulfatase from H. pomatia. The analytes and internal standards were extracted by dispersive liquid–liquid microextraction (DLLME) with isopropanol and chloroform. […] The urinary creatinine content was determined photometrically by the Jaffé’s method (Larsen [1972]).
Renal excretion rates (RE, in µg/h) of each analyte at a certain point in time were calculated by the following equation: RE=ci×vi/ti-ti-1
where ci (in µg/l) is the concentration of UV-327 or its metabolites in the urine sample i, vi (in l) is the volume of the respective urine sample, ti (in h) is the elapsed time value of the sampling, and ti−1 (in h) is the elapsed time value of the previous sampling.
Renal excretion kinetics of UV-327 and its metabolites were plotted as temporal progressions of the renal excretion rates RE at the midpoint of the respective sampling periods (ti,m in h), which were calculated as follows: ti,m=ti-1+ti-ti-1/2
Excretion curves were prepared for each study participant and each analyte by plotting the current excretion rates against the average time of the sampling period. Mean excretion curves were then obtained by averaging the closest sampling time points and the corresponding renal excretion rates for all study participants (mean ± standard deviation (SD)). The slopes (kel, elimination rate constant) of the ln-transformed mean excretion curves were used to calculate the elimination half-lives (t1/2) as follows: t1/2=ln(2)/kel
By summing the molar excreted amounts of UV-327 and its metabolites, the cumulative excreted amount of each analyte (in µmol) was calculated for each study participant: ∑i=0nci×vi/M
Furthermore, urinary excretion factors (FUE) as UV-327 dose equivalents (as percentages) were calculated to express the total excretion of UV-327 and its metabolites in urine after 24 h, 48 h, and 72 h: FUE=CEi/MD×100
CEi is the amount of the respective analyte excreted after 24 h, 48 h, and 72 h (in µmol) and MD is the ingested amount of UV-327 (in µmol).
The shares of conjugation of UV-327 and its metabolites were determined by correlation of the urinary excretion rates obtained with and without the performance of enzymatic hydrolysis. The slope of the linear fit describes the percentage of the unconjugated form of the respective analyte.

Series [2] is described as follows: UV-327 and metabolites in whole blood of volunteers after single oral administration of UV-327. Conditions: for share of the total amount of all analytes at the time point of maximum concentration: blood, UV-327 equivalents at cmax; for time after which mean blood level was below LOD / cmax (maximum blood level): whole blood; for time after which mean blood level was below LOD: single oral 0.3 mg/kg UV-327; for cmax (maximum blood level): single oral 0.3 mg/kg body weight UV-327, n = 3, mean ± SD.
Protocol: (§1) The administered dose of UV-327 was calculated with respect to an adequate distance from the no observed adverse effect level (NOAEL) determined in toxicological studies. […] As a result, 0.3 mg of UV-327/kg body weight was administered to each participant.
(§2) For the determination of potential background exposure, one blood and one urine sample of each participant were collected prior to the oral administration of UV-327. 14–29 mg of UV-327 were weighed directly onto a small piece of bread with butter, which was then consumed by the volunteers. Samples of urine and blood were then collected up to 72 h post-application. The participants collected all urine voids in separate containers. The sampling times and volumes of each sample were recorded. The urine samples were aliquoted and stored at − 50 °C until analysis. 9 ml of blood were drawn from peripheral veins at 2 h, 4 h, 6 h, 8 h, 10 h, 24 h, 34 h, 48 h, and 72 h after exposure and collected in EDTA-Monovettes®. Additional blood samples were collected from one subject 14 h, 28 h, and 58 h after exposure. This study participant donated two blood samples at each point in time; one blood sample was centrifuged to obtain plasma samples. Both blood and plasma samples were stored at − 50 °C until analysis.
(§3) Whole blood samples were prepared, processed, and analyzed according to a previously published method (Fischer and Göen [2022]). Proteins and cellular components were precipitated by the addition of acetonitrile. After centrifugation, the supernatants were diluted with water and ammonium acetate buffer. For analyte extraction, chloroform was added. The extracts were evaporated to dryness, followed by the addition of toluene and derivatization with both BSA/TCMS and TSIM. LODs ranged from 0.02 to 0.36 µg/l. […] Mean relative recovery rates ranged from 91% to 118%.
(§4) The blood samples of one study participant were additionally processed with the addition of β-glucuronidase/arylsulfatase from H. pomatia and incubation at 37 °C for 16 h to examine potential conjugation of UV-327 and its metabolites to glucuronide/sulfate.
(§5) A TRACE 1310 gas-chromatographic system equipped with a TriPlus RSH autosampler and a split/splitless injector was used for the analysis of the urine, blood, and plasma samples. The gas-chromatographic system was coupled to a TSQ 9000 triple–quadrupole mass spectrometer equipped with an advanced electron ionization (AEI) source (Thermo Fisher Scientific Inc., Waltham, USA). Chromatographic separation was performed on a (5% phenyl)-methylpolysiloxane low-bleed capillary column (HP-5msUI, 60 m × 250 µm × 0.25 µm, Agilent Technologies, Inc., Santa Clara, USA) at a constant flow rate of 1 ml/min using helium as a carrier gas. Total analysis time was 44 min. The GC–MS/MS equipment and parameter-specific settings were used as described in earlier publications for the analysis of urine (Fischer and Göen [2021]) and blood samples (Fischer and Göen [2022]). Plasma samples were analyzed using the same parameter-specific settings as for the analysis of blood samples.
(§6) Mean concentration–time curves in blood were obtained by plotting the mean blood levels against time. The elimination half-lives (t1/2) were calculated as described above. […] For this purpose, UV-327 equivalents (as percentages) were calculated as follows: ∑i=0ncmax/M×MUV-327×100

Series [3] is described as follows: UV-327 and metabolites in plasma of one volunteer after single oral administration of UV-327. The conditions noted are these: n = 1; AUC plasma / AUC blood per method.
Protocol: (§7) For the determination of potential background exposure, one blood and one urine sample of each participant were collected prior to the oral administration of UV-327. 14–29 mg of UV-327 were weighed directly onto a small piece of bread with butter, which was then consumed by the volunteers. Samples of urine and blood were then collected up to 72 h post-application. The participants collected all urine voids in separate containers. The sampling times and volumes of each sample were recorded. The urine samples were aliquoted and stored at − 50 °C until analysis. 9 ml of blood were drawn from peripheral veins at 2 h, 4 h, 6 h, 8 h, 10 h, 24 h, 34 h, 48 h, and 72 h after exposure and collected in EDTA-Monovettes®. […] Both blood and plasma samples were stored at − 50 °C until analysis.
(§8) Stock solutions of each analyte and internal standard (200 mg/l) were prepared in acetone. For calibration, an analyte spiking solution was prepared in a mixture of acetonitrile and aqueous 0.9% NaCl solution (v/v, 1:1), which contained 500 µg/l of each metabolite. For the determination of UV-327, two analyte spiking solutions were prepared, containing 2 mg/l or 40 mg/l of UV-327 in a mixture of acetonitrile and 0.9% NaCl solution (v/v, 1:1). The internal standard spiking solution contained 20 mg/l of D20-UV-327 and 1 mg/l each of D6-UV-327-4-mcx, D6-UV-327-4-mOH, D12-UV-327-4 + 6-diOH, and D6-UV-327-4-mOH-6-mcx. For derivatization, a solution containing 5% (v/v) TSIM in toluene was freshly prepared for each analytical run. Calibration standards were prepared by spiking human plasma with various volumes of the analyte spiking solutions. An eight-point calibration curve in the range of 0.5–25 µg/l was applied for the determination of the metabolites, except for UV-327-4-mOH-6-mcx, for which the calibration range was set to 2–100 µg/l due to higher limits of detection and quantitation. For the determination of UV-327, a nine-point calibration curve in the range of 10–2000 µg/l was applied. A reagent blank sample, containing water instead of plasma, was included in each analytical run. […]
On the set-up of series [4]: method as in Sommer et al. [2020]. Conditions: oral administration, ref Sommer et al. [2020]; cited from earlier work.
Series [5] concerns human androgen receptor. Also on record: method as in Fent et al. [2014]; Sakuragi et al. [2021]. The conditions noted are these: ref Fent et al. [2014]; Sakuragi et al. [2021]; cited from earlier work.
For series [6], the system named is beagle dogs. The conditions noted are these: 90-day feeding study, ref CIBA AG [1970]; cited from earlier work.
Series [7] has as its system rats. Conditions: ref Ema et al. [2006]; cited from earlier work.
Series [8] deals with rats. Conditions: especially male, ref Ema et al. [2008]; cited from earlier work.
Series [9] relates to human serum albumin. Also on record: method as in Zhuang et al. [2016]. The conditions noted are these: ref Zhuang et al. [2016]; cited from earlier work.
The subject of series [10] is rats. Conditions: ref Ema et al. [2008]; cited from earlier work.
A short description of series [11]: clinical. The conditions noted are these: both, human, whole blood, po, 0.3 mg/kg.
Protocol: as §1, §2, §3, §4, §5, §6
In series [12] the test system is human estrogen receptor. The arrangement: method as in Fent et al. [2014]; Sakuragi et al. [2021]. The conditions noted are these: ref Fent et al. [2014]; Sakuragi et al. [2021]; cited from earlier work.
On the set-up of series [13]: method as in Cantwell et al. [2015]. Conditions: ref Cantwell et al. [2015]; cited from earlier work.
The nature of series [14]: clinical. Conditions: human, plasma, po, 0.3 mg/kg.
Protocol: as §7, §8
For series [15], the system named is thyroid hormone receptors. The arrangement: method as in Nagayoshi et al. [2015]. The conditions noted are these: ref Nagayoshi et al. [2015]; cited from earlier work.
For series [16] the following is noted: in vitro; ref Fischer et al. [2020]; cited from earlier work.
The conditions of series [17]: in vivo, po; cited from earlier work.
Setting [18] is: urine of one participant, with vs without enzymatic hydrolysis.
The mark [19] stands for this setting: urine up to 72 h, n = 3, mean ± SD.
[20] abbreviates: both, human, in vivo, po, 0.3 mg/kg.

We go through 6 molecules from publication PMC9816242, “Human metabolism and excretion kinetics of benzotriazole UV stabilizer UV-327 after single oral administration” (Archives of Toxicology, 2022).

Regarding “2-(5-chloro-benzotriazol-2-yl)-4,6-di-(1-hydroxy-2-methylpropyl)phenol [UV-327-4 + 6-diOH]”, in [1] (human, in vivo), the “FUE after 24 h (urinary excretion factor)” value (“FUE after 24 h” for short) worked out at 0.0104 ± 0.0022%, the “FUE after 48 h (urinary excretion factor)” value (“FUE after 48 h” for short) stood at 0.0156 ± 0.0027% and the “FUE after 72 h (urinary excretion factor)” value (“FUE after 72 h” for short) is given as 0.018%. In [1] (human, in vivo, po, 0.3 mg/kg), the “REmax (maximum renal excretion rate)” value stood at 0.214 ± 0.058 µg/h and the “tmax (time point of maximum renal excretion rate)” value is 10.6 ± 0.08 h. This molecule had a Share of conjugation in [1] (setting [18]) of 100%. In addition, the “form present in urine (conjugated/unconjugated)” value in [1] is on record as “only present in their conjugated forms”. In [1] (setting [19]), this molecule registered a Cumulative excreted amount of 0.0121 ± 0.0051 µmol. Besides, the “FUE after 72 h” value in [1] (urine, % of ingested UV-327 dose, 72 h, n = 3, mean ± SD) was 0.0183 ± 0.0030%. Moreover, the “relative urinary share of the amount recovered within 72 h” value (“relative urinary share” for short) in [1] (urine) was 64.5%. Also, in series [1] (urine, n = 3), the “t1/2 (elimination half-life, renal excretion)” value came out at 33.0 h. In [2] (blood samples up to 72 h post-exposure), the detection in blood result is on record as “not detected in blood”.

“2-(5-chloro-benzotriazol-2-yl)-4-(1-hydroxy-2-methylpropyl)-6-(tert-butyl)phenol [UV-327-4-mOH]”: in series [1] (human, in vivo), the “FUE after 24 h” value was found to be 0.0016 ± 0.0004%, the “FUE after 48 h” value turned out to be 0.0022 ± 0.0007% and the “FUE after 72 h” value is recorded as 0.0026 ± 0.0011%. For the same molecule, in series [1] (human, in vivo, po, 0.3 mg/kg), the “REmax (maximum renal excretion rate)” value is reported as 0.032 ± 0.012 µg/h and the “tmax (time point of maximum renal excretion rate)” value was 13.5 ± 0.05 h. In series [1] (setting [18]), this molecule returned a Share of conjugation of 100%. Moreover, the “form present in urine (conjugated/unconjugated)” value in [1] is “only present in their conjugated forms”. The Cumulative excreted amount in series [1] (setting [19]) is reported as 0.0016 ± 0.0009 µmol. The “relative urinary share” value in series [1] (urine) amounted to 9.2%. In addition, the “t1/2 (elimination half-life, renal excretion)” value in [1] (urine, n = 3) turned out to be 26.7 h. Moreover, the “plasma to blood ratio” value in [3] lay within 1.5 to 1.6. Moreover, in series [2], the “share of the total amount of all analytes at the time point of maximum concentration” value (from here on “share … of maximum concentration”) is reported as 0.04%, the “time after which mean blood level was below LOD” value is given as 72 h and the “cmax (maximum blood level)” value is 0.26 ± 0.10 µg/L.

As for “2-(5-chloro-benzotriazol-2-yl)-6-(1-hydroxy-2-methylpropyl)-4-(tert-butyl)phenol [UV-327-6-mOH]”, in [1] (human, in vivo), the “FUE after 24 h” value worked out at 0.0034 ± 0.0006%, the “FUE after 48 h” value amounted to 0.0046 ± 0.0010% and the “FUE after 72 h” value was found to be 0.0049 ± 0.0013%. Besides, in series [1] (human, in vivo, po, 0.3 mg/kg), the “REmax (maximum renal excretion rate)” value is 0.068 ± 0.06 µg/h and the “tmax (time point of maximum renal excretion rate)” value came out at 8.7 ± 0.21 h. Besides, the Share of conjugation in series [1] (setting [18]) was 100%. Moreover, in [1], the “form present in urine (conjugated/unconjugated)” value is given as “only present in their conjugated forms”. The molecule also registered a Cumulative excreted amount in [1] (setting [19]) of 0.0030 ± 0.0011 µmol. Moreover, the “relative urinary share” value in [1] (urine) worked out at 17.2%. Besides, in series [1] (urine, n = 3), the “t1/2 (elimination half-life, renal excretion)” value is reported as 13.9 h. Further, in series [3], the “plasma to blood ratio” value was in the range of 1.5 to 1.6. In series [2], the “share … of maximum concentration” value is given as 0.04%, the “time after which mean blood level was below LOD” value is on record as 48 h and the “cmax (maximum blood level)” value came to 0.27 ± 0.10 µg/L.

With `CN(C)CCc1ccc(O)cc1` [N,N-dimethyltyramine], the “time to plasma peak level” value in [4] was 30 to 90 min.

`CC(C)(C)c1cc(-n2nc3ccc(Cl)cc3n2)c(O)c(C(C)(C)C)c1` [UV-327, 2-(5-chloro-benzotriazol-2-yl)-4,6-di-(tert-butyl)phenol]: the “activity against human androgen receptor” value in [5] is “no activity”. Moreover, the NOAEL (as a rule, the highest tested level that showed no adverse finding) in series [6] is reported as 30 mg/kg/day. Moreover, in [1] (both, human, in vivo), the Cumulative excreted amount amounted to 0.0016 ± 0.0007 µmol, the “FUE after 24 h” value worked out at 0.0015 ± 0.0004%, the “FUE after 48 h” value is recorded as 0.0023 ± 0.0007% and the “FUE after 72 h” value amounted to 0.0026 ± 0.0009%. In [1] (both, human, in vivo), the half-life (as a rule, the time needed for the level to fall by half in the phase considered) is 18.2 h; the “share of the total 72 h urinary amount (UV-327 and its metabolites) excreted within 24 h” value amounted to 61%; the “share of the total 72 h urinary amount (UV-327 and its metabolites) excreted within 48 h” value is given as 88%. Also, in series [1] (setting [20]), the “REmax (maximum renal excretion rate)” value was determined as 0.026 ± 0.007 µg/h and the Tmax (commonly the time from dosing to the highest level) worked out at 13.5 ± 0.05 h. For the same molecule, in series [1] (human, in vivo), the Share of conjugation stood at 16% and the “unconjugated form in urine” value is 84%. For the same molecule, in [1] (urine), the “relative urinary share” value is listed as 9.0%. Also, the “oral LD50” value in [7] is greater than 5000 mg/kg body weight. Further, in [8], the “liver findings after repeated oral administration” value is “increased liver weights, histopathological changes in hepatic tissue, and alterations in liver-specific blood parameters”. In addition, the “binding to human serum albumin” value in series [9] is on record as “found to bind to human serum albumin by forming hydrogen bonds”. Further, the reproductive toxicity result in series [10] is “did not cause reproductive”. In addition, in series [11], the highest level (Cmax) was 632 ± 114 ng/mL, the Tmax is 6 h, the concentration at 24 h turned out to be 103 ± 24 ng/mL and the concentration at 72 h worked out at 27 ± 5 ng/mL. Moreover, the “activity against human estrogen receptor” value in [12] is on record as “no activity”. The “Log Kow” value in series [13] is on record as 6.75. Also, the “conjugation in blood (with vs without enzymatic hydrolysis)” value in series [2] (blood of one participant, β-glucuronidase/arylsulfatase) is recorded as “not present as conjugates in blood”. The “share … of maximum concentration” value in [2] stood at 99.9%. Further, the Tmax in series [14] is 6 h. Moreover, the “activity against thyroid hormone receptors” value in series [15] is reported as “no activity”. In [16], the “extent of metabolism in human liver microsomes” value is given as “only moderately metabolized”.

With `CCCOC(=O)c1ccc(O)cc1` [propyl paraben], the “time to maximum serum level” value in series [17] was 1.4 ± 1.1 h.
